Measured values: publication PMC11304990, “Identification of mitochondrial ATP synthase as the cellular target of Ru-polypyridyl-β-carboline complexes by affinity-based protein profiling” (National Science Review, 2024)

How the values were obtained:
Ru5-treated cells = experiment: Effect of cell death inhibitors on antiproliferative activity; type: cell-based; settings: 24 h
Description: Figure 4. Ru5 induces mitophagy and ferroptosis and inhibits EMT in vitro. (A) TEM images of A549 cells treated with vehicle (1% DMSO) or Ru5 (10 μM, 12 h). Red rectangles represent the region enlarged. Scale bar: 5 μm and 500 nm (enlarged). (B) The morphological examination of mitochondria in A549 cells treated with Ru5 (10 μM) for the indicated time intervals. MTG: λex = 514 nm; λem = 540 ± 20 nm. LTDR: λex = 633 nm; λem = 700 ± 20 nm. Scale bar: 20 μm. (C) Western blotting analysis showing the impact of Ru5 (24 h) on the expression of proteins related to mitochondrial dysfunction and ferroptosis. (D and E) The impact of different inhibitors on antiproliferative activity of Ru5 (24 h). (F) RT-qPCR analysis of EMT-related genes in A549 cells after Ru5 (10 μM, 12 h) treatment. (G) The impact of Ru5 (5 μM) on the migration of A549 cells was measured by a wound healing assay. Scale bar: 100 μm. (H) Quantitative analysis of the impact of Ru5 on wound healing. (I) Selective images of the impact of Ru5 (5 μM, 48 h) on the migration of A549 cells detected by transwell assay. Scale bar: 100 μm. Data are presented as means ± SD from three independent experiments. *P ≤ 0.05, **P ≤ 0.01, ***P ≤ 0.001, by Student's t-test.
We then used different specific inhibitors to further confirm the modes of cell death induced by Ru5. These inhibitors act on autophagy (3-methyladenine, 3-MA, Fig. 4D), ferroptosis (liproxstatin-1, Lip-1, Fig. 4E), necroptosis (necrostatin-1, Nec-1, Fig. S47A) and apoptosis (Z-VAD-FMK, Fig. S47B). The effect of 3-MA on the antiproliferative activity of Ru5 is concentration-dependent, with lower and higher concentrations enhancing and inhibiting the antiproliferative activity of Ru5, respectively. Thus, Ru5 induces cytoprotective autophagy at lower concentrations, while autophagic cell death is induced at higher concentrations. As expected, Lip-1 can relieve the antiproliferative activity of Ru5. However, Nec-1 and Z-VAD-FMK show no effect on the cell viability of Ru5-treated cells.

[1] = tested on: cervical carcinoma (HeLa); experiment: MTT antiproliferative assay, HeLa; type: cell-based, human; settings: 72 h
From the text: (§1) Ru3–Ru9 also show a certain selectivity for cancer cells over normal cells, and Ru2, Ru3, Ru5 and Ru9 show higher selectivity index (SI) values than the other complexes.
(§2) PA-BPP was then used to confirm the molecular targets of Ru5 by modifying it with a ‘minimalist’ biorthogonal handle-containing photo-cross-linker. Through our structure–activity relationship analysis and comparison with other ruthenium complexes utilizing phen as the auxiliary ligands with similar coordination structures (using cisplatin as a control), we propose that the β-carboline ligands play an important role in antiproliferative activity. To maintain the binding characteristics of the β-carboline moiety with the targeted biomolecules, we linked the photo-cross-linker to one of the auxiliary ligands of Ru5.

malignant glioma (U87) = experiment: MTT antiproliferative assay, U87; type: cell-based, human; settings: 72 h
From the text: as §1, §2

mitochondria = experiment: Subcellular Ru content by ICP-MS; type: cell-based; settings: 20 μM, 12 h
Description: (§3) Figure 1. Validation of ATP5F1 as the molecular target of Ru5. (A) Proteins pulled down by streptavidin from A549 cells treated with Ru5a followed by PAL. The cells were treated with Ru5a (50 μM) for 12 h and irradiated with UV light for 20 min. (B) The top five peptides enriched by Ru5a-mediated PAL were identified with the assistance of SILAC-based chemoproteomic studies. H1F0: H1 histone family member 0; HIST4H4: histone cluster 4 H4; HIST3H2BB: histone cluster 3 H2B family member b; ATP5F1E: ATP synthase F1 subunit epsilon; HIST1H2AJ: histone cluster 1 H2A family member J. (C) Pull-down western blotting analysis of ATPase in A549 cells treated with Ru5a. (D) Cellular Ru content in cells treated with Ru5/Ru5a (20 μM, 12 h) measured by ICP-MS. (E) Impact of Ru5/Ru5a (10 μM) on the thermal stability of ATP5F1 measured by CETSA. (F) Impact on the anticancer activities of Ru5/Ru5a against wild type and ATPase knocking down (by siRNA) A549 cells. The relative cellular viability was calculated using the cells without drug treatment in each group as the control group. (G) Inhibition of Ru5/Ru5a on the enzymatic activity of ATPase. (-)-blebbistatin was used as the positive control. (H) Molecular docking of Ru5 with ATPase (PDB: 3ZIA). The red dashes indicate the hydrogen bonds formed between Ru5 and the amino acid residues (SER38 and GLN39). […]

[2] = target: ATPase (mitochondrial ATP synthase); experiment: Inhibition of the enzymatic activity of ATPase in vitro; type: biochemical; settings: read-out: Inhibition constant (Ki)
Description: as §3, with “GLN39). The yellow dashes indicate the hydrophobic interaction between Ru5 and the amino acid residues (ASN15 and GLN19). Data are presented as means ± SD from three independent experiments. TEXT PRINTED IN THE PICTURE: (B) Ru5a: Log2 (fold change) (Ru5a/DMSO): 1.43 (Protein name: H1F0); Log2 (fold change) (Ru5a/DMSO): 1.23 (Protein name: HIST4H4); Log2 (fold change) (Ru5a/DMSO): 1.22 (Protein name: HIST3H2BB); Log2 (fold change) (Ru5a/DMSO): 1.21 (Protein name: ATP5F1E); Log2 (fold change) (Ru5a/DMSO): 1.12 (Protein name: HIST1H2AJ) DOUBTS OF THE COPYIST ABOUT THIS PICTURE: Panel B: the table rows are proteins enriched by Ru5a, not separate substances.” for “GLN39).”

ATP5F1 = experiment: Cellular thermal shift assay (CETSA); type: cell-based; settings: 10 μM
Description: as §3

IC50 [1]: 3.1 ± 0.7 µM
IC50 (malignant glioma (U87)): 14.7 ± 0.7 µM
Subcellular location (cellular Ru content) (mitochondria): mainly located in mitochondria
Ki [2]: 6.2 ± 1.4 µM
SMILES: F[P-](F)(F)(F)(F)F.F[P-](F)(F)(F)(F)F.[Ru+2].c1ccc2c(c1)[nH]c1c(-c3ncc[nH]3)nccc12.c1cnc2c(c1)ccc1cccnc12.c1cnc2c(c1)ccc1cccnc12 [Ru5]
Effect of 3-MA (autophagy inhibitor) on antiproliferative activity (Ru5-treated cells): concentration-dependent
Effect of Lip-1 (ferroptosis inhibitor) on antiproliferative activity (Ru5-treated cells): relieve
Effect of Nec-1 (necroptosis inhibitor) on cell viability (Ru5-treated cells): no effect
Effect of Z-VAD-FMK (apoptosis inhibitor) on cell viability (Ru5-treated cells): no effect
Thermal stability of ATP5F1 (ATP5F1): increased
